Measured values as given in patent US20140296143A1, “Angiotensin-(1-7) As A Chemoprevention Agent” (Wake Forest Innovations, priority 2008, published 2014).
Square brackets hold non-standard residues; d marks the D form. Ends that are not written are not given here.

How the values were obtained:
[1] = test system: SK-LU-1 lung cancer cells; assay type: cell-based, human; conditions: for effect of antagonist on inhibition of serum-stimulated growth by Ang-(1-7): SK-LU-1, antagonist pretreatment (1 μM); for effect on serum-stimulated ^3H-thymidine incorporation: SK-LU-1, peptide at 1 or 100 nM
Method: Cells were grown to subconfluence in either 24-well cluster plates or 100 mm dishes and made quiescent by treatment for 48 h with serum-depleted growth media, prior to the experiments outlined below to measure cell growth (^3H-thymidine incorporation), cell signaling or apoptosis.
Subsequently, the cell monolayer was washed with cold phosphate-buffered saline (PBS; 50 mM NaPO4, 120 mM NaCl, pH=7.2). The adherent cells were precipitated with cold 10% TCA (4° C. for 30 min) and dissolved in 0.2% SDS in 0.1 N NaOH.
During an additional 4 h, cell monolayers were pulsed with ^3H-thymidine (0.25 μCi/well) and harvested.

[2] = test system: VSMCs; conditions: pretreatment; U.S. Pat. No. 7,375,073; cited from earlier work
[3] = molecular target: T1, AT2 angiotensin receptor (Homo sapiens, UniProt P50052); conditions: literature; cited from earlier work
T1 sequence (P50052 1-363): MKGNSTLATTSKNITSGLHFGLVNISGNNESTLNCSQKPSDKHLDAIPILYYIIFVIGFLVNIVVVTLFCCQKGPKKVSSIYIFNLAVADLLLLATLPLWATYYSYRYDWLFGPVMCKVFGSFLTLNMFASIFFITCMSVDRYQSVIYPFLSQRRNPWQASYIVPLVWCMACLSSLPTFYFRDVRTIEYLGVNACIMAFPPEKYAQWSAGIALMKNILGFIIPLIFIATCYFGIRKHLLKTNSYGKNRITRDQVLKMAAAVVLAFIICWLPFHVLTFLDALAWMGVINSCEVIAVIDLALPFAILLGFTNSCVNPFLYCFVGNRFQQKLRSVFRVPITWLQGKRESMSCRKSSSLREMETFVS

[4] = test system: AT1 angiotensin receptor; conditions: literature; cited from earlier work
Chain of AT1 angiotensin receptor (P30556 whole entry): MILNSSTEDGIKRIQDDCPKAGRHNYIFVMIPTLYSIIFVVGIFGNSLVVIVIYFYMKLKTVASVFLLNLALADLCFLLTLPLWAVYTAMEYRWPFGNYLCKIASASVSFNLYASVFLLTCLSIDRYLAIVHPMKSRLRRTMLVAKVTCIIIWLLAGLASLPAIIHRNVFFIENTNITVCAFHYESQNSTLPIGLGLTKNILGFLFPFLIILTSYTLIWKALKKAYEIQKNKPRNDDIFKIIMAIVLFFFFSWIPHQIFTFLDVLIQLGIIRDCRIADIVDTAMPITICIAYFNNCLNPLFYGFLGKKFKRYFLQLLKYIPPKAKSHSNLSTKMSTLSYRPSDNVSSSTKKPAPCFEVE

[5] = test system: EA.hy.926 cells; assay: Tube formation of endothelial cells in Matrigel; assay type: cell-based, human; conditions: selective Ang-(1-7) receptor antagonist
Method: These cells are a transformed human endothelial cell line derived from umbilical vein endothelial cells. They retain their endothelial phenotype and were previously used to study angiogenesis.
After a 16 h incubation period to allow tube formation, cultures were photographed and branch points were counted, to quantify tube formation.

Compound	effect of antagonist on inhibition of serum-stimulated growth by Ang-(1-7) [1]	effect on serum-stimulated ^3H-thymidine incorporation [1]	other results
CCCCc1nc(Cl)c(CO)n1Cc1ccc(-c2ccccc2-c2nn[nH]n2)cc1 [Losartan]	neither AT1 nor AT2 angiotensin receptor antagonists Losartan and PD123177, respectively, were effective		
Cc1cc(Cn2cnc3c2CC(C(=O)O)N(C(=O)C(c2ccccc2)c2ccccc2)C3)ccc1N (stereo not drawn) [PD123177]	neither AT1 nor AT2 angiotensin receptor antagonists Losartan and PD123177, respectively, were effective		
CCN(CC)CC.Nc1ncnc2c1ncn2[C@@H]1O[C@@H]2COP(O)(=S)O[C@H]2[C@H]1O (stereo partly drawn) [Rp-cAMPS, Rp-adenosine-3′,5′-cyclic monphospho-phorothioate triethylamine salt]			effect on the reduction in serum-stimulated ^3H-thymidine incorporation by Ang-(1-7) or carbacyclin [2]: completely blocked
Arg-Val-Tyr-Ile-His-Pro-Phe (RVYIHPF; listed as Homo sapiens) [Ang-(2-8)]		ineffective	
Asp-Arg-Val-Tyr-Ile-His-Pro-Phe [Ang II]		ineffective	
DRVYIHPFHL [Ang I]		ineffective	
Val-Tyr-Ile-His-Pro (VYIHP; listed as Homo sapiens) [Ang-(3-7)]		ineffective	
Val-Tyr-Ile-His-Pro-Phe (VYIHPF; listed as Homo sapiens) [Ang-(3-8)]		ineffective	
[D-Ala^7]-Ang-(1-7): a modified form of Ang-(1-7), selective Ang-(1-7) antagonist (DRVYIH[dA]) [reference compound]	blocked		competition at the AT2 receptor [3]: poor competitor; competition at the AT1 receptor [4]: poor competitor
[D-Pro^7]-Ang-(1-7): a selective Ang-(1-7) receptor antagonist [reference compound]			effect on Ang-(1-7)-mediated reduction in tube formation [5]: prevented
